Read-outs that look alike come from different tables or passages of the source.
Legend:
Format in all cases: cell-based, Escherichia coli
[1] = system: EKO-35-Pore acrBD408A (functionally inactive AcrB variant); test: Checkerboard synergy (FICI), porinated strain
Outline: (§1)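 Interaction of PAβN or NMP with antibiotics is scored as FICI = CA/MICA + CB/MICB, from MICs (no growth, OD600) in MHB II checkerboard microdilution following CLSI. Solvent controls accompany every plate.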

wild-type K-12-Pore = test: Checkerboard synergy (FICI), porinated strain
Outline: as §1

EKO-35-Pore = test: Checkerboard synergy (FICI), porinated strain
Outline: as §1

[2] = system: EKO-35 porinated strain expressing acrB; test: Checkerboard synergy (FICI), porinated strain
Outline: as §1

EKO-35 = system: EKO-35
Outline: as §1

ΔtolC-Pore = system: ΔtolC-Pore
Outline: as §1

EKO-35 acrBD408A = system: EKO-35 acrBD408A
Outline: as §1

ΔtolC = system: ΔtolC
Outline: as §1

[3] = strain EKO-35 acrBD408A Pore, NMP + antibiotic
[4] = strain EKO-35 Pore, NMP + antibiotic
[5] = EKO-35 acrB Pore, NMP + antibiotic
[6] = strain EKO-35 acrB Pore, NMP + antibiotic
[7] = strain EKO-35, NMP + antibiotic
[8] = strain ΔtolC Pore, NMP + antibiotic
[9] = EKO-35 acrBD408A, NMP + antibiotic
[10] = EKO-35 acrBD408A, PAβN + antibiotic
[11] = strain EKO-35 acrBD408A, NMP + antibiotic

SMILES: CC(=O)NC[C@H]1CN(c2ccc(N3CCOCC3)c(F)c2)C(=O)O1 [linezolid]
- FICI ([1]; EKO-35 acrBD408A Pore, NMP + antibiotic): 2.000
- FICI ([1]; EKO-35 acrBD408A Pore, PAβN + antibiotic): 1.000
- MICb Alone ([1]; EKO-35 acrBD408A Pore, antibiotic alone (PAβN checkerboard)): 8 µg/mL
- MICb Combined ([1]; EKO-35 acrBD408A Pore, antibiotic in combination with PAβN): 4 µg/mL
- Effect [1, 3]: — (indifferent (FICI >1.0))
- FICI [1, 3]: 2.000
- MICb Alone ([1]; strain EKO-35 acrBD408A Pore, antibiotic alone): 8 µg/mL
- MICb Combined ([1]; strain EKO-35 acrBD408A Pore, antibiotic in combination with NMP): 8 µg/mL
- Effect (wild-type K-12-Pore; K-12 Pore, NMP + antibiotic): Synergistic
- Effect (wild-type K-12-Pore; K-12 Pore, PAβN + antibiotic): Synergistic
- FICI (wild-type K-12-Pore; K-12 Pore, PAβN + antibiotic): 0.250
- MICb Alone (wild-type K-12-Pore; K-12 Pore, antibiotic alone (PAβN checkerboard)): 128 µg/mL
- MICb Combined (wild-type K-12-Pore; K-12 Pore, antibiotic in combination with PAβN): 16 µg/mL
- Effect (wild-type K-12-Pore; strain K-12 Pore, NMP + antibiotic): Synergistic (Synergy (FICI ≤0.5))
- MICb Alone (wild-type K-12-Pore; strain K-12 Pore, antibiotic alone): 128 µg/mL
- MICb Combined (wild-type K-12-Pore; strain K-12 Pore, antibiotic in combination with NMP): 32 µg/mL
- FICI (EKO-35-Pore; EKO-35 Pore, NMP + antibiotic): 2.000
- FICI (EKO-35-Pore; EKO-35 Pore, PAβN + antibiotic): 1.000
- MICb Alone (EKO-35-Pore; EKO-35 Pore, antibiotic alone (PAβN checkerboard)): 8 µg/mL
- MICb Combined (EKO-35-Pore; EKO-35 Pore, antibiotic in combination with PAβN): 4 µg/mL
- Effect (EKO-35-Pore; [4]): — (indifferent (FICI >1.0))
- FICI (EKO-35-Pore; [4]): 2.000
- MICb Alone (EKO-35-Pore; strain EKO-35 Pore, antibiotic alone): 8 µg/mL
- MICb Combined (EKO-35-Pore; strain EKO-35 Pore, antibiotic in combination with NMP): 8 µg/mL
- Effect [2, 5]: Synergistic
- FICI [2, 5]: 0.250
- Effect ([2]; EKO-35 acrB Pore, PAβN + antibiotic): Synergistic
- MICb Alone ([2]; EKO-35 acrB Pore, antibiotic alone (PAβN checkerboard)): 128 µg/mL
- MICb Combined ([2]; EKO-35 acrB Pore, antibiotic in combination with PAβN): 8 µg/mL
- potentiation of the labelled compound by NMP ([2]; porinated strain producing AcrB): enhancing the activity
- Effect [2, 6]: Synergistic (Synergy (FICI ≤0.5))
- FICI [2, 6]: 0.250
- MICb Alone ([2]; strain EKO-35 acrB Pore, antibiotic alone): 128 µg/mL
- MICb Combined ([2]; strain EKO-35 acrB Pore, antibiotic in combination with NMP): 16 µg/mL
- Effect (EKO-35; EKO-35, NMP + antibiotic): Additive
- FICI (EKO-35; EKO-35, NMP + antibiotic): 0.531
- Effect (EKO-35; EKO-35, PAβN + antibiotic): Additive
- FICI (EKO-35; EKO-35, PAβN + antibiotic): 0.750
- MICb Alone (EKO-35; EKO-35, antibiotic alone (PAβN checkerboard)): 16 µg/mL
- MICb Combined (EKO-35; EKO-35, antibiotic in combination with PAβN): 4 µg/mL
- interaction of PAβN in combination with the labelled antibiotic (FICI) (EKO-35; efflux-deficient strains EKO-35, EKO-35 acrBD408A, ΔtolC): not synergistic
- Effect (EKO-35; [7]): Additive (additive (FICI >0.5-1.0))
- FICI (EKO-35; [7]): 0.531
- MICb Alone (EKO-35; strain EKO-35, antibiotic alone): 16 µg/mL
- MICb Combined (EKO-35; strain EKO-35, antibiotic in combination with NMP): 8 µg/mL
- Effect (ΔtolC-Pore; [8]): — (indifferent (FICI >1.0))
- FICI (ΔtolC-Pore; [8]): 1.000
- MICb Alone (ΔtolC-Pore; strain ΔtolC Pore, antibiotic alone): 8 µg/mL
- MICb Combined (ΔtolC-Pore; strain ΔtolC Pore, antibiotic in combination with NMP): 4 µg/mL
- FICI (ΔtolC-Pore; ΔtolC Pore, NMP + antibiotic): 1.000
- Effect (ΔtolC-Pore; ΔtolC Pore, PAβN + antibiotic): Additive
- FICI (ΔtolC-Pore; ΔtolC Pore, PAβN + antibiotic): 0.563
- MICb Alone (ΔtolC-Pore; ΔtolC Pore, antibiotic alone (PAβN checkerboard)): 8 µg/mL
- MICb Combined (ΔtolC-Pore; ΔtolC Pore, antibiotic in combination with PAβN): 0.5 µg/mL
- Effect (EKO-35 acrBD408A; [9]): Additive
- FICI (EKO-35 acrBD408A; [9]): 0.516
- Effect (EKO-35 acrBD408A; [10]): Additive
- FICI (EKO-35 acrBD408A; [10]): 0.750
- MICb Alone (EKO-35 acrBD408A; EKO-35 acrBD408A, antibiotic alone (PAβN checkerboard)): 16 µg/mL
- MICb Combined (EKO-35 acrBD408A; EKO-35 acrBD408A, antibiotic in combination with PAβN): 4 µg/mL
- Effect (EKO-35 acrBD408A; [11]): Additive (additive (FICI >0.5-1.0))
- FICI (EKO-35 acrBD408A; [11]): 0.516
- MICb Alone (EKO-35 acrBD408A; strain EKO-35 acrBD408A, antibiotic alone): 16 µg/mL
- MICb Combined (EKO-35 acrBD408A; strain EKO-35 acrBD408A, antibiotic in combination with NMP): 8 µg/mL
- Effect (ΔtolC; strain ΔtolC, NMP + antibiotic): — (indifferent (FICI >1.0))
- FICI (ΔtolC; strain ΔtolC, NMP + antibiotic): 2.000
- MICb Alone (ΔtolC; strain ΔtolC, antibiotic alone): 8 µg/mL
- MICb Combined (ΔtolC; strain ΔtolC, antibiotic in combination with NMP): 8 µg/mL
- FICI (ΔtolC; ΔtolC, NMP + antibiotic): 2.000
- Effect (ΔtolC; ΔtolC, PAβN + antibiotic): Additive
- FICI (ΔtolC; ΔtolC, PAβN + antibiotic): 0.750
- MICb Alone (ΔtolC; ΔtolC, antibiotic alone (PAβN checkerboard)): 8 µg/mL
- MICb Combined (ΔtolC; ΔtolC, antibiotic in combination with PAβN): 2 µg/mL
